In general, solubility refers to the concentration that dissolves in the medium under given conditions. Low readings indicate little dissolved substance, high ones much dissolved substance.

For data set [1], the system named is increase in uterus weight by stimulus with estradiol. Nature of the data set: Anti-estrogenic activity via oral administration (inhibition of estradiol-stimulated uterus weight increase). Type of data set: in vivo. The conditions noted are these: ovariectomized ICR mice, 17β-estradiol-benzoate 0.1 μg/day s.c. for 3 days, 10 mg/kg p.o., once a day, in 5% arabic gum. The method, then:
Oral anti-estrogenic activity in vivo of the test compound was determined according to the method described hereinafter.
In this experiment, the test compound or the control compound was suspended in 5% arabic gum solution and orally administered for 3 days, once a day. After 24 hours from the last administration, the test animal was sacrificed and uterus was removed and weighed.

Data set [2] is described as follows: Solubility test in FaSSIF or water, shaken at 37° C., filtrate measured by HPLC.
Protocol: The degree of improvement in solubility was determined by measuring the solubility of the test compound as follows.
To 1 mg of each compound was added 2 ml of FaSSIF (artificial intestinal juice, bile) or water, which was then shaken at 37° C. After 1, 2 and 20 hours, 200 μm of sample was taken and filtered. The concentration of the filtrate was measured by HPLC and the results are described in the following Table 2.
[3] abbreviates: FaSSIF, 37 °C, thermodynamic from solid.

Values after ≈ are worked out from the molar mass of the structure shown.

Consider `C[C@@]1(c2ccc(O)cc2)CSc2cc(O)ccc2[C@@H]1CCCCCCCCC(CCCC(F)(F)C(F)(F)F)C(=O)[O-].[Na+]` (mixture of isomers) [Example 1, Sodium (3′RS,4′RS)-10-[7-hydroxy-3-(4-hydroxyphenyl)-3-methylthiochroman-4-yl]-2-(4,4,5,5,5-pentafluoropentyl)decanoate], for which the “Inhibition (%) of the increase in uterus weight by estradiol” value (shortened to “Inhibition (%) of the increase”) in data set [1] is reported as 74%.

As for `C[C@]12CC[C@@H]3c4ccc(O)cc4C[C@@H](CCCCCCCCC[S+]([O-])CCCC(F)(F)C(F)(F)F)[C@H]3[C@@H]1CC[C@@H]2O` (stereo partly shown) [ICI182,780], the “Inhibition (%) of the increase” value in data set [1] came out at 69%. In data set [2] (setting [3]), this molecule displayed a solubility at 1 h of 0.365 µg/mL (≈ 0.602 µM), a solubility at 2 h of 0.474 µg/mL (≈ 0.781 µM) and a solubility at 20 h of 1.7 µg/mL (≈ 2.8 µM). In data set [2] (water as the solvent), the “Solubility in water (in words)” value is given as “can hardly be solved in water”.

As to `CC1(c2ccc(O)cc2)CSc2cc(O)ccc2C1CCCCCCCCC(CCCC(F)(F)C(F)(F)F)C(=O)O` (stereo not drawn) [(3′RS,4′RS)-10-[7-Hydroxy-3-(4-hydroxyphenyl)-3-methylthiochroman-4-yl]-2-(4,4,5,5,5-pentafluoropentyl)decanoic Acid], the “Inhibition (%) of the increase” value in data set [1] is reported as 79%.

The record behind these values is patent publication US20030092695A1, “Metal salts of 3-methyl-chromane or thiochromane derivatives” (priority 1999, published 2003).
